Measured values from ChEMBL document CHEMBL3608225, “Harpagoside Inhibits RANKL-Induced Osteoclastogenesis via Syk-Btk-PLCγ2-Ca(2+) Signaling Pathway and Prevents Inflammation-Mediated Bone Loss” (J Nat Prod, 2015).
The source made the active and inactive calls. No cut-off for these calls is given here.

Legend:
[1] = biological target: T1, Tumor necrosis factor ligand superfamily member 11 (Mus musculus) (UniProt O35235); assay: Inhibition of RANKL-mediated osteoclastogenesis in mouse BMMC assessed as reduction of NFATc1 mRNA expression at 100 uM after 12 to 48 hrs by RT-PCR analysis; format: functional
T1 sequence (whole entry): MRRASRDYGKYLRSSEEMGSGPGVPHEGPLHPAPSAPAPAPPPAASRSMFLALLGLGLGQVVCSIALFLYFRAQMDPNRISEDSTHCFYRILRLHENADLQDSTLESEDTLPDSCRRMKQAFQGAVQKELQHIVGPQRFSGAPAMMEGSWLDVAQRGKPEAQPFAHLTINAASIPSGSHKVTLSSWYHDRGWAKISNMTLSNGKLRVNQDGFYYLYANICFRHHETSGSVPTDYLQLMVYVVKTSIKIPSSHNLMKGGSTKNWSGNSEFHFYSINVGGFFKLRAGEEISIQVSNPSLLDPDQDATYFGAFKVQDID

[2] = test system: Mus musculus; assay: Inhibition of LPS-induced bone loss in ICR mouse assessed as restoration of BV/TV in femurs at 10 mg/kg, po after 10 days by morphometric analysis; format: functional, organism-based
[3] = test system: Osteoclast; assay: Inhibition of bone resorption in mouse mature osteoclasts after 24 hrs by light microscopic analysis; format: functional, cell-based
[4] = test system: Mus musculus; assay: Inhibition of LPS-induced bone loss in ICR mouse assessed as prevention of loss in trabecular bone in femurs at 10 mg/kg, po after 10 days by micro-CT analysis; format: functional, organism-based; conditions: Trabecula
[5] = biological target: T1, Tumor necrosis factor ligand superfamily member 11 (Mus musculus); assay: Inhibition of RANKL-mediated osteoclastogenesis in mouse BMMC assessed as reduction of c-Fos mRNA expression at 100 uM after 12 to 48 hrs by RT-PCR analysis; format: functional
[6] = biological target: T1, Tumor necrosis factor ligand superfamily member 11 (Mus musculus); assay: Inhibition of RANKL-mediated osteoclastogenesis in mouse BMMC assessed as reduction of cathepsin K mRNA expression at 100 uM after 12 to 48 hrs by RT-PCR analysis; format: functional
[7] = biological target: T1, Tumor necrosis factor ligand superfamily member 11 (Mus musculus); assay: Inhibition of RANKL-mediated osteoclast differentiation in mouse BMMC assessed as disruption of F-actin ring formation after 3 days using phalloidin and DAPI staining; format: functional
[8] = test system: Mus musculus; assay: Inhibition of ovariectomized-induced bone loss in C57BL/6 mouse assessed as restoration of BV/TV in femurs at 10 mg/kg, po administered every other day for 28 days by morphometric analysis; format: functional, organism-based
[9] = biological target: T1, Tumor necrosis factor ligand superfamily member 11 (Mus musculus); assay: Inhibition of RANKL-mediated osteoclastogenesis in mouse BMMC assessed as reduction of TRAP mRNA expression at 100 uM after 12 to 48 hrs by RT-PCR analysis; format: functional
[10] = test system: Mus musculus; assay: Inhibition of LPS-induced bone loss in ICR mouse assessed as reduction of RANKL/OPG ratio in serum level at 10 mg/kg, po after 10 days by ELISA; format: functional, organism-based
[11] = test system: Mus musculus; assay: Inhibition of LPS-induced bone loss in ICR mouse assessed as restoration of Tb.Th in femurs at 10 mg/kg, po after 10 days by morphometric analysis; format: functional, organism-based
[12] = test system: Mus musculus; assay: Inhibition of LPS-induced bone loss in ICR mouse assessed as reduction of CTX-I in serum at 10 mg/kg, po after 10 days by ELISA; format: functional, organism-based
[13] = biological target: T1, Tumor necrosis factor ligand superfamily member 11 (Mus musculus); assay: Inhibition of RANKL-mediated osteoclastogenesis in mouse BMMC assessed as reduction of NFATc1 protein expression at 100 uM after 12 to 48 hrs by Western blot analysis; format: functional
[14] = Cytotoxicity against mouse BMMC assessed as cell viability after 3 days by XTT assay; conditions: 72 h
[15] = test system: Mus musculus; assay: Inhibition of ovariectomized-induced bone loss in C57BL/6 mouse assessed as restoration of bone loss in femurs at 10 mg/kg, po administered every other day for 28 days by hematoxylin and eosin staining; format: functional, organism-based
[16] = test system: Mus musculus; assay: Inhibition of ovariectomized-induced bone loss in C57BL/6 mouse assessed as restoration of Tb.Sp in femurs at 10 mg/kg, po administered every other day for 28 days by morphometric analysis; format: functional, organism-based
[17] = test system: Mus musculus; assay: Inhibition of ovariectomized-induced bone loss in C57BL/6 mouse assessed as restoration of Tb.N in femurs at 10 mg/kg, po administered every other day for 28 days by morphometric analysis; format: functional, organism-based
[18] = test system: Mus musculus; assay: Inhibition of LPS-induced bone loss in ICR mouse assessed as restoration of Tb.N in femurs at 10 mg/kg, po after 10 days by morphometric analysis; format: functional, organism-based
[19] = biological target: T1, Tumor necrosis factor ligand superfamily member 11 (Mus musculus); assay: Inhibition of RANKL-mediated osteoclast differentiation in mouse BMMC assessed as formation of TRAP-positive osteoclasts after 4 days; format: functional
[20] = biological target: T1, Tumor necrosis factor ligand superfamily member 11 (Mus musculus); assay: Inhibition of RANKL-mediated osteoclastogenesis in mouse BMMC assessed as reduction of beta3-integrin mRNA expression at 100 uM after 12 to 48 hrs by RT-PCR analysis; format: functional
[21] = biological target: T1, Tumor necrosis factor ligand superfamily member 11 (Mus musculus); assay: Inhibition of RANKL-mediated osteoclastogenesis in mouse BMMC assessed as reduction of CTR mRNA expression at 100 uM after 12 to 48 hrs by RT-PCR analysis; format: functional
[22] = test system: Mus musculus; assay: Inhibition of ovariectomized-induced bone loss in C57BL/6 mouse assessed as restoration of osteoclast formation in femurs at 10 mg/kg, po administered every other day for 28 days by hematoxylin and eosin staining; format: functional, organism-based
[23] = test system: Mus musculus; assay: Inhibition of ovariectomized-induced bone loss in C57BL/6 mouse assessed as reduction of loss of bone mineral density at 10 mg/kg, po administered every other day for 28 days by micro-CT analysis; format: functional, organism-based
[24] = biological target: T2, 1-phosphatidylinositol 4,5-bisphosphate phosphodiesterase gamma-2 (Mus musculus) (UniProt Q8CIH5); assay: Inhibition of RANKL-mediated PLCgamma2 phosphorylation in mouse BMMC at 100 uM after 1 hr by Western blot analysis
T2 sequence (whole entry): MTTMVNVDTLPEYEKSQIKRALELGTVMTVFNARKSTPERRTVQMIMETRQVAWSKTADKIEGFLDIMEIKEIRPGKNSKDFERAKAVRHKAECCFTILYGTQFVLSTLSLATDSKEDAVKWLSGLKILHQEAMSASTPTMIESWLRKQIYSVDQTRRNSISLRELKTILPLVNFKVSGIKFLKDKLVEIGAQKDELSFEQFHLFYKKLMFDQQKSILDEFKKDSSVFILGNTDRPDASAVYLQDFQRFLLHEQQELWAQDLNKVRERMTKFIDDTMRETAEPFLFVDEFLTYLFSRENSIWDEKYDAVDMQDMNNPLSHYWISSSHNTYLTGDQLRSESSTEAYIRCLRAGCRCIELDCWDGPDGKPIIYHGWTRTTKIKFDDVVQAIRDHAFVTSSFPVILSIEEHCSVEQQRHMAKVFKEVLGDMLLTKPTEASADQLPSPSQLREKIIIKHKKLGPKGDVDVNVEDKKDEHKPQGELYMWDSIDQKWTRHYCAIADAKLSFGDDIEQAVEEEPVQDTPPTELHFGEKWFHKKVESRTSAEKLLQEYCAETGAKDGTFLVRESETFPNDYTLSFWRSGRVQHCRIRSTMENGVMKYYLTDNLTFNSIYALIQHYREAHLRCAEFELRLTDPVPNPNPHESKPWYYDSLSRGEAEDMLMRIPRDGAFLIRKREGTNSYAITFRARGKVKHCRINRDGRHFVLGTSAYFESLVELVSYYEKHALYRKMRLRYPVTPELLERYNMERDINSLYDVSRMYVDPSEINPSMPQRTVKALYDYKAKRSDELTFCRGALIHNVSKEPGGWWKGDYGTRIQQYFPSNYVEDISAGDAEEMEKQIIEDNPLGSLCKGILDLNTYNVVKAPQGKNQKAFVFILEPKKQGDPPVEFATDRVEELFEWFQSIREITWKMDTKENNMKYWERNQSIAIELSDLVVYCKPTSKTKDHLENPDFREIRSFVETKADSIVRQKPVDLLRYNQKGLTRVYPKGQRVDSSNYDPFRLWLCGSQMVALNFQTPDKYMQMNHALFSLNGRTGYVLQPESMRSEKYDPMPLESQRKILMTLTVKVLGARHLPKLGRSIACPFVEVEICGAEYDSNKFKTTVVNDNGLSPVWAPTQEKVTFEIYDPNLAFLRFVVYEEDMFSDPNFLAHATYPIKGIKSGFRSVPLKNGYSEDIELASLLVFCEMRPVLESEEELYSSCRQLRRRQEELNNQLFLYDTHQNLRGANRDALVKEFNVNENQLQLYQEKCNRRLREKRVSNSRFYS

[25] = biological target: T1, Tumor necrosis factor ligand superfamily member 11 (Mus musculus); assay: Inhibition of RANKL-mediated JNK phosphorylation in mouse BMMC at 100 uM after 1 hr by Western blot analysis
[26] = biological target: T1, Tumor necrosis factor ligand superfamily member 11 (Mus musculus); assay: Inhibition of RANKL-mediated osteoclastogenesis in mouse BMMC assessed as reduction of OSCAR mRNA expression at 100 uM after 12 to 48 hrs by RT-PCR analysis; format: functional
[27] = test system: Mus musculus; assay: Inhibition of LPS-induced bone loss in ICR mouse assessed as restoration of bone loss in femurs at 10 mg/kg, po after 10 days by hematoxylin and eosin staining; format: functional, organism-based
[28] = biological target: T1, Tumor necrosis factor ligand superfamily member 11 (Mus musculus); assay: Inhibition of RANKL-mediated osteoclastogenesis in mouse BMMC assessed as reduction of c-Fos protein expression at 100 uM after 12 to 48 hrs by Western blot analysis; format: functional
[29] = test system: Mus musculus; assay: Inhibition of LPS-induced bone loss in ICR mouse assessed as restoration of number of osteoclasts in femurs at 10 mg/kg, po after 10 days; format: functional, organism-based
[30] = test system: Mus musculus; assay: Inhibition of ovariectomized-induced bone loss in C57BL/6 mouse assessed as restoration number of osteoclasts in femurs at 10 mg/kg, po administered every other day for 28 days; format: functional, organism-based
[31] = test system: Mus musculus; assay: Inhibition of LPS-induced bone loss in ICR mouse assessed as restoration of osteoclast formation in femurs at 10 mg/kg, po after 10 days by hematoxylin and eosin staining; format: functional, organism-based
[32] = test system: Mus musculus; assay: Inhibition of LPS-induced bone loss in ICR mouse assessed as restoration of Tb.Sp in femurs at 10 mg/kg, po after 10 days by morphometric analysis; format: functional, organism-based
[33] = test system: Mus musculus; assay: Inhibition of ovariectomized-induced bone loss in C57BL/6 mouse assessed as CTX-I level in serum at 10 mg/kg, po administered every other day for 28 days by ELISA; format: functional, organism-based
[34] = biological target: T1, Tumor necrosis factor ligand superfamily member 11 (Mus musculus); assay: Inhibition of RANKL-mediated ERK phosphorylation in mouse BMMC at 100 uM after 1 hr by Western blot analysis
[35] = biological target: Tyrosine-protein kinase BTK (Mus musculus) (UniProt P35991); assay: Inhibition of RANKL-mediated Btk phosphorylation in mouse BMMC at 100 uM after 1 hr by Western blot analysis
Sequence of Tyrosine-protein kinase BTK (Mus musculus) (P35991 whole entry): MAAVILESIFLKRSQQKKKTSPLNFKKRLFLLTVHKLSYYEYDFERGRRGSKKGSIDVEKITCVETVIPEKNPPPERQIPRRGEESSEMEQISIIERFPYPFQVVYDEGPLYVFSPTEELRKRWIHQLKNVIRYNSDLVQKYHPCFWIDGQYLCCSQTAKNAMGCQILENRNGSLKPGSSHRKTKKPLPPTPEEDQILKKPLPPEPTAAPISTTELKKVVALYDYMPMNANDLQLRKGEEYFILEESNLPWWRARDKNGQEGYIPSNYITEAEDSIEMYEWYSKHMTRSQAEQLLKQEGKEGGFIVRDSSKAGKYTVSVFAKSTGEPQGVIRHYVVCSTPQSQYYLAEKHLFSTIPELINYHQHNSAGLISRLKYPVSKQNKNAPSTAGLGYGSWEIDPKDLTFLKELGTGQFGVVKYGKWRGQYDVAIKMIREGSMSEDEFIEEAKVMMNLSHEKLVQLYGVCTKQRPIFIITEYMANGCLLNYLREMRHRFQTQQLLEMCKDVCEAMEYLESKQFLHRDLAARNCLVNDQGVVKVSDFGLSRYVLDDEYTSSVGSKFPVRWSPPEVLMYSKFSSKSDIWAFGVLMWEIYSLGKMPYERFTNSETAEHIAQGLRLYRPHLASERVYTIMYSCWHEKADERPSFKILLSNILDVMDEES

[36] = biological target: T1, Tumor necrosis factor ligand superfamily member 11 (Mus musculus); assay: Inhibition of RANKL-mediated osteoclastogenesis in mouse BMMC assessed as reduction of amplitude and frequency of Ca2+ oscillations at 100 uM after 24 hrs by Fura-2/AM fluorescence assay; format: functional
[37] = biological target: Tyrosine-protein kinase SYK (Mus musculus) (UniProt P48025); assay: Inhibition of RANKL-mediated Syk phosphorylation in mouse BMMC at 100 uM after 1 hr by Western blot analysis
Sequence of Tyrosine-protein kinase SYK (Mus musculus) (P48025 whole entry, looked up): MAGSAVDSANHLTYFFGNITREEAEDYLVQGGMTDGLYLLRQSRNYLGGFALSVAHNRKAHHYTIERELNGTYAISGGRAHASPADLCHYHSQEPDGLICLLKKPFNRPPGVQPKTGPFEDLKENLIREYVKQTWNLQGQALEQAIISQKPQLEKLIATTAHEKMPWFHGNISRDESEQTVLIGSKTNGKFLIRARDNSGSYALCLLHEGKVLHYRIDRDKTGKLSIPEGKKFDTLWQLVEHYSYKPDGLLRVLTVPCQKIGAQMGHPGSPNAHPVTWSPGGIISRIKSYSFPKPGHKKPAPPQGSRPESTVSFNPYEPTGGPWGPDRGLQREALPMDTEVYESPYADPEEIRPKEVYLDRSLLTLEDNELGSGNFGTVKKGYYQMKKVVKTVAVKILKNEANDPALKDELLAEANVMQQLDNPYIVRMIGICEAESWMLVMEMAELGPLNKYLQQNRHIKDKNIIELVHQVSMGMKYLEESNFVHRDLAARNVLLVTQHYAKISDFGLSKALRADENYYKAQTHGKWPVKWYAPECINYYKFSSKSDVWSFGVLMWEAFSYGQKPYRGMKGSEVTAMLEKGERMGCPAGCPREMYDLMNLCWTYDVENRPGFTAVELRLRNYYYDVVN

[38] = biological target: T1, Tumor necrosis factor ligand superfamily member 11 (Mus musculus); assay: Inhibition of RANKL-mediated osteoclastogenesis in mouse BMMC assessed as reduction of DC-STAMP mRNA expression at 100 uM after 12 to 48 hrs by RT-PCR analysis; format: functional

C[C@]1(OC(=O)/C=C/c2ccccc2)C[C@@H](O)[C@]2(O)C=CO[C@@H](O[C@@H]3O[C@H](CO)[C@@H](O)[C@H](O)[C@H]3O)[C@@H]21 [HARPAGOSIDE]
inhibition [1]: Active | inhibition [2]: Active | inhibition [3]: Dose-dependent effect | inhibition [4]: Active | inhibition [5]: Active | inhibition [6]: Active | inhibition [7]: Dose-dependent effect | inhibition [8]: inactive | inhibition [9]: Active | inhibition [10]: Active | inhibition [11]: inactive | inhibition [12]: Active | inhibition [13]: Active | Activity [14]: Non-toxic | inhibition [15]: inactive | inhibition [16]: inactive | inhibition [17]: inactive | inhibition [18]: Active | inhibition [19]: Dose-dependent effect | inhibition [20]: Active | inhibition [21]: Active | inhibition [22]: inactive | inhibition [23]: inactive | inhibition [24]: Active | inhibition [25]: Active | inhibition [26]: Active | inhibition [27]: Active | inhibition [28]: Active | inhibition [29]: Active | inhibition [30]: inactive | inhibition [31]: Active | inhibition [32]: Active | inhibition [33]: inactive | inhibition [34]: Active | inhibition [35]: Active | inhibition [36]: Active | inhibition [37]: Active | inhibition [38]: Active
